This note sets out measurements from PMC7824769, “Identification of Small Molecules Blocking the Pseudomonas aeruginosa Type III Secretion System Protein PcrV” (Biomolecules, 2021).

“And” between values parts separate entries of the source, which are not always exact repeats. Equal entries are not always repeated. Where only a bound is given, the exact number is not on record here.

One series has as its target PcrV (Pseudomonas aeruginosa, UniProt G3XD49). In words: SPR dose-response binding to immobilized PcrV (equilibrium analysis). How it is done:
The SPR screening was performed using the ProteOn^TM XPR36 Protein Interaction Array System (Bio-Rad Laboratories Inc., Hercules, CA, USA) with ProteOn GLH sensor chip (Bio-Rad Laboratories Inc., Hercules, CA, USA), and the results were analyzed with the ProteOn Manager software^TM (Bio-Rad Laboratories Inc., Hercules, CA, USA), Excel 2016 (Microsoft Office), and GraphPad Prism 7.04. All SPR experiments were performed at 25 °C. The multichannel module of the ProteOn system was in the vertical position during protein immobilization. The proteins were attached to the surface of a GLH sensor chip via amine coupling chemistry. A buffer scouting was performed to elucidate the optimal binding conditions of PcrV to the GLH sensor chip. First, channels 1–4 on the chip surface were activated using a 1:1 mixture of 40 mM 1-ethyl-3-(3-dimethylaminopropyl)carbodiimide hydrochloride (EDAC) (Bio-Rad Laboratories Inc., Hercules, CA, USA) and 10 mM N-hydroxysulfosuccinimide (sulfo-NHS, Bio-Rad Laboratories Inc., Hercules, CA, USA) for 300 s at 30 µL/min. Next, the proteins PcrV (33,398.6 Da, 6.37 mg/mL) was diluted in 10 mM NaOAc (pH 4, 4.5, and 5) to 0.05 mg/mL. PcrV was immobilized in channel 1–3 for 540 s at 30 µL/min. Channel 4 was flushed with 10 mM NaOAc (pH 5) for 540 s at 30 µL/min. As deactivating agent, a 1:1 mixture of 1 M ethanolamine and milli-Q filtered water was used. The deactivating solution was injected over all four channels for 300 s at 30 µL/min. Phosphate buffered saline with Tween (PBST; 10 mM phosphate buffer pH 7.4, 140 mM NaCl, 2.7 mM KCl, and 0.05% Tween 20) was used as the running buffer. The final amount of immobilized protein was measured in resonance units (RU) relative to the signal of the baseline prior activation. […] Immobilization of PcrV diluted in sodium acetate of pH 4.5 in one channel and of pH 5 in one channel were used in the beginning of the screening procedure (for plate 1–26). Since no difference was found between the two pH values, the PcrV protein was diluted in sodium acetate at pH 5 only (in two channels) from plate 27 and the rest of the screen. The immobilization procedure for the screening was performed as described above with the addition that the control protein carbonic anhydrase isoenzyme II from bovine erythrocytes (CAII, Sigma-Aldrich, article number 2522) was immobilized in one channel that was activated and deactivated as described above. CAII (1 mg/mL in PBS) was deactivated when diluted in 10 mM sodium acetate (pH 4) to 0.05 mg/mL. Immobilization level of the deactivated CAII was 18,000 RU. Deactivated CAII was used as a control protein according to the recommendations by the ProteOn manufacturer (Bio-Rad Laboratories Inc., Hercules, CA, USA). As running buffer, we employed PBS (pH 7.4, 0.05% Tween 20).
First, the PcrV protein was immobilized in two channels as described above while keeping a blank channel which was activated and deactivated as described above. The multichannel module of the ProteOn system was in horizontal position during the small molecule interaction studies. They were serially diluted to (400,) 200, 100, 50, 25, 12.5, 6.25, and (3.125); or 100, 50, 25, and 12.5 µM; or 100, 66.7, 44.4, 29.6, 19.7, and 13.2 µM in PBST (0.05% Tween 20) with a total concentration of 5% DMSO in 96-well plates. The running buffer was PBST (0.05% Tween 20) containing 5% DMSO. The analytes were injected at a flowrate of 100 µL/min, contact time was 60 s, and dissociation time was 60–120 s. Solvent correction was performed continuously during the experiments to account for bulk response of DMSO. The data was then baseline-aligned, processed by channel referencing with the blank channel, and solvent-corrected. The equilibrium dissociation constant (KD) values were determined from equilibrium analysis in the ProteOn Manager software^TM. Solubility problems frequently hampered KD determination since the small molecules could not always be dissolved in concentrations high enough to reach a plateau. […]

Series [1] concerns J774 cells infected with P. aeruginosa strain PAK. In words: cells. In kind it is cell-based, Pseudomonas aeruginosa. The settings on record: for viability at 25 µM / viability at 50 µM / viability at 100 µM / viability at 200 µM: Pseudomonas aeruginosa, uninfected control = 100%, infected control = 0%; for viability at 25 µM: J774, compound 25 µM, read-out: Viability Assay (% of Uninfected Control) 25 µM; for viability at 50 µM: J774, compound 50 µM, read-out: Viability Assay (% of Uninfected Control) 50 µM; for viability at 100 µM: J774, compound 100 µM, read-out: Viability Assay (% of Uninfected Control) 100 µM; for viability at 200 µM: J774, compound 200 µM; for Anti-virulence efficacy in the infection assay (in words): 25-200 µM. How it is done:
(§1) The cell viability assay was performed essentially as described before. J774 cells were seeded in 96-well micro-titer plates (Nunc), 100 µL/well, to a final number of 50,000 cells/well in Dulbecco’s modified Eagle’s medium (DMEM) with glutamax (Merck) supplemented with 10% fetal calf serum (FCS) and 3 µg/mL gentamicin and incubated for 16-18 h. Overnight cultures of the P. aeruginosa strains PAK and PAKpcrV [10] were grown in Luria Broth (LB) on a rotary shaker at 220 rpm at 37 °C. Prior to infection, the bacteria were diluted 1:10 in DMEM + glutamax and incubated for 1 h at 37 °C (shaking). The J774 cells were washed once with PBS, then 30 µL of DMEM with glutamax and 10% FCS supplemented with the potential binders at concentrations of 50, 100, 200, and 400 µM were added to the wells in triplicates. The infection was initiated by adding 30 µL of the diluted bacterial solutions (where the OD600 had been diluted to 0.0008) to each well to initiate infection. This infection results in a final bacterial concentration of OD600 = 0.0004 and a multiplicities of infection (MOI) of approximately 8, with final concentrations of the compounds at 25, 50, 100, and 200 µM in 60 µL of DMEM + glutamax and 5% FCS. In the primary screening, the compounds were run at one concentration (100 µM) in duplicates. As an infection control, the wild-type strain PAK with 1% DMSO was added, and as a positive control, PAKpcrV with 1% DMSO was added into four wells each. After 3 h and 30 min, 10 µL of UptiBlue Viable Cell Counting Kit (Interchime, France) was added to all wells. The infection was followed under the light microscope and the fluorescence (excitation 535 nm and emission 595 nm) was measured at 4, 5, and 6 h in a microplate reader (Synergy™ H4, Biotek). The results were calculated as percentage of living cells compared to uninfected control, where the uninfected control was set to 100% living cells and the infected control was set to 0% living cells. As a control, compounds were added to uninfected cells in a parallel experiment and viability was calculated as above to screen for cell toxicity. A compound was considered toxic if the viability was <80% of the uninfected control after 6 h of incubation and if a visual change of cell morphology was observed by microscopy. Z’ was calculated for each plate to ensure good quality throughout the screening. Only results from plates with a Z’ > 0.4 were counted. Standard deviation was calculated with Gaussian approximation when appropriate and shown as error bars in Figure 3C and Figure 4A.
The T3SS is important for P. aeruginosa infection of eukaryotic cells, and a T3SS activator mutant or a mutant lacking the T3SS tip protein PcrV are not able to infect eukaryotic cells. The macrophage cell line, J774, was infected with the wild-type P. aeruginosa strain PAK, and the potential PcrV binders were added to the wells at a final concentration of 100 µM to screen for inhibition of infection. The T3SS-mediated cytotoxic effect on the eukaryotic cells was measured by using a viability staining method (Uptiblue, Interchim), and the results were measured after 4, 5, and 6 h of infection. The pcrV-mutant (PAKpcrV), which is not able to infect macrophages due to deletion of the PcrV protein, was used as a control.

The next series concerns uninfected J774 cells. In words: Cell toxicity control: compounds added to uninfected J774 cells. In kind it is cell-based. Conditions: 6 h incubation; for Toxicity towards eukaryotic cells, 200 µM: compound 200 µM. How it is done:
as §1

[2] abbreviates: KD ± standard error of KD (Table S1), single experiment, standard error from ProteOn Manager software.
[3] abbreviates: SPR KD, equilibrium analysis, mean ± SD of three or more independent experiments, individual values where n < 3, 25 °C, PBST 5% DMSO.

Chain of PcrV (G3XD49 entry or part of it): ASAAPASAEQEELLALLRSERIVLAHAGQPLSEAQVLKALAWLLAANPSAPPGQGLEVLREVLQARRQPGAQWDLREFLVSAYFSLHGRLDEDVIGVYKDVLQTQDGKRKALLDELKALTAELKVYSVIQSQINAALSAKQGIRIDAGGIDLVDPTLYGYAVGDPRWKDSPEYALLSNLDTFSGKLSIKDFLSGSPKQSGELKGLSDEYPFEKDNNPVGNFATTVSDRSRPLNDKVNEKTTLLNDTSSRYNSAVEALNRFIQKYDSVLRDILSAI

With `O=C(O)CCCOc1ccc(Cl)cc1Cl` [Compound 1], the Kd at PcrV (setting [2]) came to 124 ± 53 µM. The Kd on PcrV (setting [3]) is < 127 µM and 95 µM. For the same compound, in series [1], the viability at 25 µM was 14%, the viability at 50 µM worked out at 12%, the viability at 100 µM was 21% and the viability at 200 µM turned out to be 16%. The “Toxicity towards eukaryotic cells, 200 µM” value with uninfected J774 cells was “b (The compound is toxic^e towards eukaryotic cells, which might affect the results negatively)”.
In turn, `O=C(O)CCCOc1cc(Cl)ccc1Oc1ccc(Cl)cc1Cl` [Compound 17] returned a Kd at PcrV (setting [3]) of 536 µM. In series [1], the viability at 25 µM is 10%, the viability at 50 µM is 3%, the viability at 100 µM was 7% and the viability at 200 µM was -2%. Besides, the “Toxicity towards eukaryotic cells, 200 µM” value in the series with uninfected J774 cells was “b (The compound is toxic^e towards eukaryotic cells, which might affect the results negatively)”.
`Cc1c(Br)ccc(OCCCC(=O)N2CCC(C(=O)O)CC2)c1C` [Compound 23] had an equilibrium dissociation constant (Kd) at PcrV (setting [2]) of 94.1 ± 31 µM. The Kd on PcrV (setting [3]) is 94 µM and 103 µM. Moreover, in series [1], the viability at 25 µM is 17%, the viability at 50 µM was 18%, the viability at 100 µM is 20% and the viability at 200 µM was found to be 9%. For the same compound, the “Toxicity towards eukaryotic cells, 200 µM” value with uninfected J774 cells was “b (The compound is toxic^e towards eukaryotic cells, which might affect the results negatively)”.
Consider `Cc1c(Br)ccc(OCCCC(=O)NS(=O)(=O)C(F)(F)F)c1C` [Compound 25], for which the Kd at PcrV (setting [3]) is 102 µM and 164 µM. In series [1], the “Anti-virulence efficacy in the infection assay (in words)” value was “as efficacious as or better than H1”, the viability at 25 µM is 9%, the viability at 50 µM came out at 11% and the viability at 100 µM was found to be 22%. Also, in series [1], the viability at 200 µM worked out at 34%.
`Cc1c(Br)ccc(OCCCC(=O)NS(C)(=O)=O)c1C` [Compound 26] displayed a Kd at PcrV (setting [2]) of 135 ± 30 µM. The compound also showed an equilibrium dissociation constant (Kd) on PcrV (setting [3]) of 93 ± 31 µM. Moreover, in series [1], the viability at 25 µM is 10%, the viability at 50 µM is 11%, the viability at 100 µM worked out at 17% and the viability at 200 µM came to 13%.
Consider `Cc1c(Br)ccc(OCCCC(=O)NS(=O)(=O)c2ccccc2)c1C` [Compound 27], for which the Kd on PcrV (setting [2]) came to 116 ± 18 µM. The Kd at PcrV (setting [3]) stood at 118 ± 62 µM. Moreover, in series [1], the viability at 25 µM came to 13%, the viability at 50 µM came out at 15%, the viability at 100 µM is 25% and the viability at 200 µM is -6%. Further, in the series on uninfected J774 cells, the “Toxicity towards eukaryotic cells, 200 µM” value is “b (The compound is toxic^e towards eukaryotic cells, which might affect the results negatively)”.
Regarding `Cc1c(Br)ccc(OCCCCO)c1C` [Compound 28], the Kd at PcrV (setting [3]) is 127 µM and 351 µM. Moreover, the “Toxicity towards eukaryotic cells, 25 µM” value in the series on uninfected J774 cells (compound 25 µM) is given as “Toxic ^e (<80% viability compared to the DMSO control)”. Further, in the series on uninfected J774 cells (compound 50 µM), the “Toxicity towards eukaryotic cells, 50 µM” value is “Toxic ^e (<80% viability compared to the DMSO control)”. In addition, the “Toxicity towards eukaryotic cells, 100 µM” value in the series on uninfected J774 cells (compound 100 µM) is given as “Toxic ^e (<80% viability compared to the DMSO control)”. Besides, in the series with uninfected J774 cells, the “Toxicity towards eukaryotic cells, 200 µM” value is reported as “Toxic ^e (<80% viability compared to the DMSO control)”.
As to `COC(=O)CCCOc1ccc(Br)c(C)c1C` [Compound 29], the Kd on PcrV (setting [2]) was found to be 206 ± 77 µM. The compound further came in with a dissociation constant Kd on PcrV (setting [3]) of 110 ± 83 µM. In addition, the “Rmax (Table S1)” value on PcrV (single experiment) was determined as 60. In series [1], the viability at 25 µM amounted to 8%, the viability at 50 µM turned out to be 12%, the viability at 100 µM stood at 23% and the viability at 200 µM amounted to 14%.
On to `Cc1c(Br)ccc(OCCCc2ccccc2C(=O)O)c1C` [Compound 30], for which, on PcrV (setting [2]), the Kd is 149 ± 27 µM. In addition, binding on PcrV (setting [3]) was put at a Kd of 113 ± 31 µM. In addition, in series [1], the viability at 25 µM is 16%, the viability at 50 µM was 25%, the viability at 100 µM is 21% and the viability at 200 µM is -16%. Besides, the “Toxicity towards eukaryotic cells, 200 µM” value with uninfected J774 cells was “b (The compound is toxic^e towards eukaryotic cells, which might affect the results negatively)”.
As for `Cc1c(Br)ccc(OCCCCC(=O)O)c1C` [Compound 31], at PcrV (setting [3]), the Kd was 120 µM and 138 µM. Moreover, in series [1], the “Anti-virulence efficacy in the infection assay (in words)” value is “no or modest anti-virulence activity without clear dose-response”, the viability at 25 µM was 11%, the viability at 50 µM amounted to 17% and the viability at 100 µM was found to be 18%. In addition, in series [1], the viability at 200 µM was 17%.
